{"source": "ChEMBL document CHEMBL4390683", "about": "“Design, synthesis, and evaluation of α-galactopyranosylceramide mimics promoting Th2 cytokines production” (2019)", "type_in_all_cases": "functional", "key": {"Mus musculus [1]": {"test_system": "Mus musculus", "test": "Induction of serum IFNgamma production in C57BL/6 mouse at 100 ug/kg, ip and measured for 48 hrs by AUC method relative to KRN7000"}, "Mus musculus [2]": {"test_system": "Mus musculus", "test": "Ratio of induction activity for IL-4 production in C57BL/6 mouse at 100 ug/kg, ip after 48 hrs by AUC method to induction activity for IFN-gamma production in C57BL/6 mouse at 100 ug/kg, ip after 48 hrs by AUC method"}, "Mus musculus [3]": {"test_system": "Mus musculus", "test": "Induction of serum IL-4 production in C57BL/6 mouse assessed as serum IL-4 level at 100 ug/kg, ip and measured for 48 hrs by AUC method"}, "Mus musculus [4]": {"test_system": "Mus musculus", "test": "Induction of serum IFNgamma production in C57BL/6 mouse assessed as serum IFNgamma level at 100 ug/kg, ip and measured for 48 hrs by AUC method"}, "Mus musculus [5]": {"test_system": "Mus musculus", "test": "Ratio of induction activity for IL-4 production in C57BL/6 mouse at 100 ug/kg, ip after 48 hrs by peak value method to induction activity for IFN-gamma production in C57BL/6 mouse at 100 ug/kg, ip after 48 hrs by peak value method"}, "Mus musculus [6]": {"test_system": "Mus musculus", "test": "Induction of serum IFNgamma production in C57BL/6 mouse assessed as serum IFNgamma level at 100 ug/kg, ip and measured for 48 hrs by peak value method"}, "Mus musculus [7]": {"test_system": "Mus musculus", "test": "Induction of serum IFNgamma production in C57BL/6 mouse assessed as serum IFNgamma level at 100 ug/kg, ip and measured for 48 hrs by peak value method relative to KRN7000"}, "Mus musculus [8]": {"test_system": "Mus musculus", "test": "Induction of serum IL-4 production in C57BL/6 mouse at 100 ug/kg, ip and measured for 48 hrs by AUC method relative to KRN7000"}, "Mus musculus [9]": {"test_system": "Mus musculus", "test": "Induction of serum IL-4 production in C57BL/6 mouse assessed as serum IL-4 level at 100 ug/kg, ip and measured for 48 hrs by peak value method relative to KRN7000"}, "Mus musculus [10]": {"test_system": "Mus musculus", "test": "Induction of serum IL-4 production in C57BL/6 mouse assessed as serum IL-4 level at 100 ug/kg, ip and measured for 48 hrs by peak value method", "design": "unit not given here"}}, "data": [{"compound": "CCCCCCCCCCCCCCCCCCCCCCCC(=O)N[C@@H](CO[C@H]1O[C@H](CNC(=O)[C@@H](N)CCC(=O)O)[C@H](O)[C@H](O)[C@H]1O)[C@H](O)[C@H](O)CCCCC", "values": [{"measurement": "Activity", "setting": "Mus musculus [1]", "result": 20, "unit": "%"}, {"measurement": "Ratio", "setting": "Mus musculus [2]", "result": 7.59}, {"measurement": "Activity", "setting": "Mus musculus [3]", "result": 2043.36, "unit": "pg·h/mL"}, {"measurement": "AUC", "setting": "Mus musculus [4]", "result": 3520, "unit": "pg·h/mL"}, {"measurement": "Ratio", "setting": "Mus musculus [5]", "result": 2.99}, {"measurement": "Activity", "setting": "Mus musculus [6]", "result": 241, "unit": "pg/mL"}, {"measurement": "Activity", "setting": "Mus musculus [7]", "result": 36, "unit": "%"}, {"measurement": "Activity", "setting": "Mus musculus [8]", "result": 153, "unit": "%"}, {"measurement": "Activity", "setting": "Mus musculus [9]", "result": 108, "unit": "%"}, {"measurement": "Activity", "setting": "Mus musculus [10]", "result": 303.26}]}, {"compound": "CCCCCCCCCCCCCCCCCCCCCCCC(=O)N[C@@H](CO[C@H]1O[C@H](CNC(=O)CCc2ccc(O)cc2)[C@H](O)[C@H](O)[C@H]1O)[C@H](O)[C@H](O)CCCCC", "values": [{"measurement": "Activity", "setting": "Mus musculus [1]", "result": 25, "unit": "%"}, {"measurement": "Ratio", "setting": "Mus musculus [2]", "result": 9.3}, {"measurement": "Activity", "setting": "Mus musculus [3]", "result": 3120.95, "unit": "pg·h/mL"}, {"measurement": "AUC", "setting": "Mus musculus [4]", "result": 4380, "unit": "pg·h/mL"}, {"measurement": "Ratio", "setting": "Mus musculus [5]", "result": 9.28}, {"measurement": "Activity", "setting": "Mus musculus [6]", "result": 169, "unit": "pg/mL"}, {"measurement": "Activity", "setting": "Mus musculus [7]", "result": 25, "unit": "%"}, {"measurement": "Activity", "setting": "Mus musculus [8]", "result": 234, "unit": "%"}, {"measurement": "Activity", "setting": "Mus musculus [9]", "result": 235, "unit": "%"}, {"measurement": "Activity", "setting": "Mus musculus [10]", "result": 657.75}]}, {"compound": "CCCCCCCCCCCCCCCCCCCCCCCCCC(=O)N[C@@H](CO[C@H]1O[C@H](CO)[C@H](O)[C@H](O)[C@H]1O)[C@H](O)[C@H](O)CCCCCCCCCCCCCC", "note": "[RGI-7000]", "values": [{"measurement": "Ratio", "setting": "Mus musculus [2]", "result": 1}, {"measurement": "Activity", "setting": "Mus musculus [3]", "result": 1331, "unit": "pg·h/mL"}, {"measurement": "AUC", "setting": "Mus musculus [4]", "result": 17400, "unit": "pg·h/mL"}, {"measurement": "Ratio", "setting": "Mus musculus [5]", "result": 1}, {"measurement": "Activity", "setting": "Mus musculus [6]", "result": 666, "unit": "pg/mL"}, {"measurement": "Activity", "setting": "Mus musculus [10]", "result": 280}]}, {"compound": "CCCCCCCCCCCCCCCCCCCCCCCC(=O)N[C@@H](CO[C@H]1O[C@H](CO)[C@H](O)[C@H](O)[C@H]1O)[C@H](O)[C@H](O)CCCCC", "values": [{"measurement": "Activity", "setting": "Mus musculus [1]", "result": 39, "unit": "%"}, {"measurement": "Ratio", "setting": "Mus musculus [2]", "result": 6.45}, {"measurement": "AUC", "setting": "Mus musculus [4]", "result": 6780, "unit": "pg·h/mL"}, {"measurement": "Ratio", "setting": "Mus musculus [5]", "result": 4.85}, {"measurement": "Activity", "setting": "Mus musculus [6]", "result": 336, "unit": "pg/mL"}, {"measurement": "Activity", "setting": "Mus musculus [7]", "result": 50, "unit": "%"}, {"measurement": "Activity", "setting": "Mus musculus [8]", "result": 251, "unit": "%"}, {"measurement": "Activity", "setting": "Mus musculus [9]", "result": 244, "unit": "%"}]}]}
